In brackets after ≈: the same amount, converted by molar mass.
Key:
Assay in all cases: ≥ marks a high value that may be exact or a test limit, other limits are often not marked, values filed in µg/mL are converted to µM
[1] = tested on: Staphylococcus aureus NCTC 10788
[2] = tested on: Candida albicans NCYC 1467
[3] = tested on: Escherichia coli NCTC 10418
[4] = tested on: Staphylococcus epidermidis
Salmonella typhimurium = tested on: Salmonella typhimurium
Pseudomonas aeruginosa = tested on: Pseudomonas aeruginosa
Escherichia coli = tested on: Escherichia coli
Serratia marcescens = tested on: Serratia marcescens
Bacillus subtilis = tested on: Bacillus subtilis
Proteus mirabilis = tested on: Proteus mirabilis
Micrococcus luteus = tested on: Micrococcus luteus
Saccharomyces cerevisiae = tested on: Saccharomyces cerevisiae
Shigella dysenteriae = tested on: Shigella dysenteriae
Candida albicans = tested on: Candida albicans
Listeria innocua = tested on: Listeria innocua
Streptococcus uberis = tested on: Streptococcus uberis
Pasteurella multocida = tested on: Pasteurella multocida
Staphylococcus aureus = tested on: Staphylococcus aureus
Leuconostoc lactis = tested on: Leuconostoc lactis
Bacillus cereus = tested on: Bacillus cereus
[5] = tested on: Staphylococcus aureus ATCC BAA-1556
Escherichia coli UB1005 = tested on: Escherichia coli UB1005
[6] = tested on: Escherichia coli ATCC 25922
[7] = tested on: Salmonella enterica subsp. enterica serovar Typhimurium ATCC 14028
[8] = tested on: Staphylococcus aureus ATCC 29213
[9] = tested on: Pseudomonas aeruginosa ATCC 27853
[10] = tested on: Bacillus subtilis CMCC 63501
[11] = tested on: Staphylococcus epidermidis ATCC 12228
[12] = tested on: Salmonella typhimurium ATCC 7731
[13] = tested on: Pseudomonas aeruginosa ATCC 15442
[14] = tested on: Candida albicans ATCC 10231

CC[C@H](C)[C@H](NC(=O)CNC(=O)CNC(=O)[C@H](C)NC(=O)[C@@H](NC(=O)[C@H](CCCCN)NC(=O)[C@@H]1CCCN1C(=O)[C@@H](NC(=O)[C@H](CCSC)NC(=O)[C@H](CO)NC(=O)[C@H](Cc1ccccc1)NC(=O)[C@@H](N)Cc1ccccc1)[C@@H](C)CC)[C@@H](C)CC)C(=O)N[C@@H](C)C(=O)N[C@@H](CO)C(=O)N[C@@H](CC(C)C)C(=O)N[C@H](C(=O)N[C@@H](CCCCN)C(=O)N[C@@H](CC(N)=O)C(=O)N[C@@H](CC(C)C)C(N)=O)C(C)C [FFSMIPKIAGGIASLVKNL]
MIC [1]: 3.99 µM (≈ 8 µg/mL)
MIC [2]: 3.99 µM (≈ 8 µg/mL)
MIC [3]: ≥ 63.8 µM

CC[C@H](C)[C@H](NC(=O)CN)C(=O)N[C@@H](CC(C)C)C(=O)N[C@@H](CC(=O)O)C(=O)N[C@H](C(=O)N[C@@H](CC(C)C)C(=O)N[C@@H](CCCCN)C(=O)N[C@@H](CCC(N)=O)C(=O)N[C@@H](Cc1ccccc1)C(=O)N[C@@H](C)C(=O)N[C@@H](CCCCN)C(=O)NCC(=O)N[C@H](C(=O)NCC(=O)N[C@@H](CCCCN)C(=O)N[C@@H](CC(=O)O)C(=O)N[C@@H](CC(C)C)C(=O)N[C@H](C(=O)N[C@@H](CCCCN)C(=O)NCC(=O)N[C@@H](C)C(=O)N[C@@H](C)C(=O)N[C@@H](CCC(N)=O)C(=O)NCC(=O)N[C@H](C(=O)N[C@@H](CC(C)C)C(=O)N[C@@H](CO)C(=O)O)C(C)C)C(C)C)C(C)C)[C@@H](C)O [GILDTLKQFAKGVGKDLVKGAAQGVLS]
MIC [4]: 18.4 µM (≈ 50 µg/mL)
MIC (Salmonella typhimurium): 27.6 µM (≈ 75 µg/mL)
MIC (Pseudomonas aeruginosa): 9.21 µM (≈ 25 µg/mL)
MIC (Escherichia coli): 9.21 µM (≈ 25 µg/mL)
MIC (Serratia marcescens): ≥ 36.8 µM
MIC (Bacillus subtilis): 18.4 µM (≈ 50 µg/mL)
MIC (Proteus mirabilis): 18.4 µM (≈ 50 µg/mL)
MIC (Micrococcus luteus): 0.921 µM (≈ 2.5 µg/mL)
MIC (Saccharomyces cerevisiae): 9.21 µM (≈ 25 µg/mL)
MIC (Shigella dysenteriae): 9.21 µM (≈ 25 µg/mL)
MIC (Candida albicans): > 36.8 µM

CC[C@H](C)[C@H](NC(=O)[C@@H](NC(=O)[C@H](C)NC(=O)[C@H](Cc1ccccc1)NC(=O)[C@H](CC(C)C)NC(=O)CN)C(C)C)C(=O)N[C@@H](CCCCN)C(=O)N[C@@H](CCCCN)C(=O)N[C@H](C(=O)N[C@@H](C)C(=O)N[C@@H](CO)C(=O)N[C@H](C(=O)N[C@H](C(=O)N[C@@H](CCCCN)C(=O)N[C@@H](CCCCN)C(=O)N[C@@H](CC(C)C)C(N)=O)[C@@H](C)CC)C(C)C)C(C)C [GLFAVIKKVASVIKKL]
MIC (Listeria innocua): 3.5 µM (≈ 6 µg/mL)
MIC [4]: 7 µM (≈ 12 µg/mL)
MIC (Streptococcus uberis): 14.6 µM (≈ 25 µg/mL)
MIC (Escherichia coli): 58.3 µM (≈ 99.9 µg/mL)
MIC (Pasteurella multocida): ≥ 58.3 µM
MIC (Staphylococcus aureus): 14.6 µM (≈ 25 µg/mL)
MIC (Micrococcus luteus): 14.6 µM (≈ 25 µg/mL)
MIC (Leuconostoc lactis): 1.75 µM (≈ 3 µg/mL)
MIC (Bacillus cereus): 14.6 µM (≈ 25 µg/mL)

CC[C@H](C)[C@H](NC(=O)[C@@H](NC(=O)[C@@H]1CCCN1C(=O)[C@@H](NC(=O)[C@@H](NC(=O)[C@H](Cc1cnc[nH]1)NC(=O)[C@@H]1CCCN1C(=O)[C@@H](NC(=O)[C@@H](NC(=O)[C@H](Cc1cnc[nH]1)NC(=O)[C@H](CCCCN)NC(=O)[C@@H](NC(=O)[C@@H](NC(=O)[C@H](CO)NC(=O)CNC(=O)[C@H](CC(C)C)NC(=O)[C@@H](NC(=O)[C@H](CO)NC(=O)[C@H](CC(C)C)NC(=O)[C@H](CC(C)C)NC(=O)CN)C(C)C)C(C)C)C(C)C)C(C)C)[C@@H](C)CC)C(C)C)C(C)C)C(C)C)C(=O)N[C@@H](C)C(=O)N[C@@H](CCC(=O)O)C(=O)N[C@@H](Cc1cnc[nH]1)C(=O)N[C@@H](CC(C)C)C(N)=O [GLLSVLGSVVKHVIPHVVPVIAEHL]
MIC (Listeria innocua): 19.1 µM (≈ 50 µg/mL)
MIC [4]: 9.57 µM (≈ 25 µg/mL)
MIC (Streptococcus uberis): 19.1 µM (≈ 50 µg/mL)
MIC (Escherichia coli): > 38.3 µM
MIC (Pasteurella multocida): 9.57 µM (≈ 25 µg/mL)
MIC (Staphylococcus aureus): 9.57 µM (≈ 25 µg/mL)
MIC (Micrococcus luteus): 4.59 µM (≈ 12 µg/mL)
MIC (Leuconostoc lactis): 1.15 µM (≈ 3 µg/mL)
MIC (Bacillus cereus): 19.1 µM (≈ 50 µg/mL)

CC[C@H](C)[C@H](NC(=O)[C@H](Cc1c[nH]c2ccccc12)NC(=O)[C@H](CCCN=C(N)N)NC(=O)[C@H](CCCN=C(N)N)NC(=O)[C@H](CC(C)C)NC(=O)[C@@H](N)CCCCN)C(=O)N[C@@H](CCCN=C(N)N)C(=O)N[C@@H](Cc1c[nH]c2ccccc12)C(=O)N[C@@H](CC(C)C)C(N)=O [KLRRWIRWL]
MIC [5]: 25 µM (≈ 33.1 µg/mL)

CC[C@H](C)[C@H](NC(=O)CNC(=O)[C@H](C)NC(=O)[C@H](C)NC(=O)[C@@H](NC(=O)[C@@H](NC(=O)[C@H](CC(N)=O)NC(=O)[C@@H](NC(=O)[C@H](C)NC(=O)[C@@H](NC(=O)[C@@H]1CCCN1C(=O)[C@@H](NC(=O)[C@H](CC(C)C)NC(=O)[C@@H]1CCCN1C(=O)[C@H](Cc1c[nH]c2ccccc12)NC(=O)[C@H](Cc1ccccc1)NC(=O)[C@H](CCCN=C(N)N)NC(=O)[C@@H](N)CCCCN)C(C)C)C(C)C)[C@@H](C)CC)[C@@H](C)O)C(C)C)C(=O)N[C@@H](CC(N)=O)C(N)=O [KRFWPLVPVAINTVAAGIN]
MIC (Escherichia coli UB1005): ≥ 128 µM
MIC [6]: > 128 µM
MIC [7]: > 128 µM
MIC [8]: > 128 µM
MIC [9]: > 128 µM
MIC [10]: ≥ 128 µM
MIC [11]: > 128 µM
MIC [12]: ≥ 128 µM

CC[C@H](C)[C@H](NC(=O)[C@H](Cc1c[nH]c2ccccc12)NC(=O)[C@H](CCCN=C(N)N)NC(=O)[C@H](CCCN=C(N)N)NC(=O)[C@H](Cc1c[nH]c2ccccc12)NC(=O)[C@@H](N)CCCCN)C(=O)N[C@@H](CCCN=C(N)N)C(N)=O [KWRRWIR]
MIC [5]: ≥ 100 µM

CC(C)C[C@H](NC(=O)[C@H](CC(C)C)NC(=O)[C@H](CC(C)C)NC(=O)[C@H](CC(C)C)NC(=O)[C@H](CC(C)C)NC(=O)[C@H](CCCCN)NC(=O)[C@H](CC(C)C)NC(=O)[C@@H](N)CC(C)C)C(=O)N[C@@H](CCCCN)C(N)=O [LLKLLLLLK]
MIC [5]: ≥ 100 µM

CC(C)C[C@H](NC(=O)[C@H](CC(C)C)NC(=O)[C@H](CC(C)C)NC(=O)[C@H](CC(C)C)NC(=O)[C@H](CC(C)C)NC(=O)[C@H](CC(C)C)NC(=O)[C@H](CCCCN)NC(=O)[C@H](CC(C)C)NC(=O)[C@@H](N)CC(C)C)C(N)=O [LLKLLLLLL]
MIC [5]: ≥ 100 µM

CC[C@H](C)[C@H](NC(=O)[C@H](C)NC(=O)[C@@H](N)C(C)C)C(=O)N[C@@H](C)C(=O)N[C@@H](CC(C)C)C(=O)N[C@@H](CCCCN)C(=O)N[C@@H](C)C(=O)N[C@@H](C)C(=O)N[C@@H](Cc1cnc[nH]1)C(=O)N[C@@H](Cc1ccc(O)cc1)C(=O)N[C@@H](Cc1cnc[nH]1)C(=O)N[C@H](C(=O)N[C@@H](C)C(=O)N[C@@H](CCCCN)C(=O)N[C@@H](CCC(=O)O)C(=O)O)[C@@H](C)O [VAIALKAAHYHTAKE]
MIC [8]: 0.154 µM (≈ 0.25 µg/mL)
MIC [13]: ≥ 78.9 µM
MIC [14]: 78.9 µM (≈ 128 µg/mL)

CC(C)C[C@H](NC(=O)[C@H](Cc1c[nH]c2ccccc12)NC(=O)[C@H](Cc1c[nH]c2ccccc12)NC(=O)[C@H](CC(C)C)NC(=O)[C@H](Cc1c[nH]c2ccccc12)NC(=O)[C@@H](N)Cc1c[nH]c2ccccc12)C(=O)N[C@@H](CCCN=C(N)N)C(N)=O [WWLWWLR]
MIC [5]: 12.5 µM (≈ 14.3 µg/mL)
